Experimental data reported in PMC9268100, “Chelation of Theranostic Copper Radioisotopes with S-Rich Macrocycles: From Radiolabelling of Copper-64 to In Vivo Investigation” (Molecules, 2022).

Assays:
[1] = Stability in phosphate-buffered saline; type: physicochemical; conditions: 25 MBq/nmol, 24 h; for intact complex in PBS: no radioprotectant, ambient temperature
Experimental: The stability of the preformed [^64Cu]Cu^2+ complexes in phosphate-buffered saline (PBS) was explored by diluting the labelling solution 1:1 v/v in PBS (pH 7.4). Both low and high molar activities (0.1 MBq/nmol and 25 MBq/nmol, respectively) were employed to evaluate the effect of radiolysis. Radioprotectants (ethanol 10% v/v or ascorbic acid 10% v/v) were added to PBS to quench the radiolysis phenomena. The [^64Cu]Cu^2+ complex stabilities were investigated at different time points after preparation using the TLC or UHPLC protocols reported previously.

[2] = Biodistribution in BALB/c nude mice; type: in vivo
Experimental: (§1) All procedures involving animals were performed in accordance with ethical protocols approved by the Italian Ministry of Health (n. 44/2021-PR). Six-week-old female BALB/c nude mice (n = 9) were purchased from Charles River/Envigo and divided into three groups. Mice (n = 3/group) were administered with 7–14 MBq (depending on acquisition time after injection) of [^64Cu][Cu(DO2A2S)] solution by caudal intravenous injection. The exact amount of injected radioactivity was determined using a Capintec CRC-15PET dose calibrator. Micro PET/CT data were collected at 1, 4, and 24 h post injection using a Bruker Albira Si. Mice were anaesthetized with 1–2% isoflurane in a flow of oxygen (2 L/min 100% O2) and images were acquired over 20 min (10 min for PET and CT images acquisition, respectively). PET data were reconstructed using MLEM GPU (Graphics Processing Unit), while Filter Back Projection Algorithm was used for reconstructing CT images. Mice were euthanized by cervical dislocation immediately following the PET/CT scan and organs and tissues of interest were collected and weighed. Radioactivity associated with organs was measured using a γ-spectrometer based on a 1″×1″ inch cylindrical LBC (Lanthanum BromoChloride), LaBr2.85Cl0.15:Ce, inorganic scintillator manufactured by SCIONIX coupled to a HAMAMATSU R11102 Photomultiplier tube (PMT) which was previously characterized and validated against a Capintec CRC-15PET dose calibrator [48]. The results were corrected for decay to the time of injection. Radioactivity values were expressed as percentage of injected dose (mean ± SEM) per gram of tissue or organ (% ID/g). Concurrently, blood and urine aliquots (1 μL) were sampled for stability tests, which were carried out by radio-TLC scans (Cyclone, Perkin Elmer) by using silica gel 60 RP-18 F254S plates and 0.1 M sodium citrate as eluent.

[3] = Stability assay with cysteine (1000:1 Cys-to-ligand); type: physicochemical; conditions: 37 °C
Experimental: (§2) The stability of the preformed [^64Cu]Cu^2+ complexes was assessed by adding a 1000:1 DOTA/cysteine-to-ligand molar ratio excess. The incubation temperature was set at 37 °C when cysteine was used to simulate the biological environment, whilst it was kept at RT when DOTA was employed as a challenging agent.
(§3) The complex stability was evaluated over time by withdrawing an aliquot from the reaction mixtures. The latter was analyzed by UHPLC using the method described above.

[4] = In vivo stability in blood and urine samples (radio-TLC); parameters: species or system BALB/c nude mice
Experimental: as §1, with “PET data were reconstructed using MLEM GPU (Graphics Processing Unit), while Filter Back Projection Algorithm was used for reconstructing CT images. Mice were euthanized by cervical dislocation immediately following the PET/CT scan and organs and tissues of interest were collected and weighed.” left out, “The results were corrected for decay to the time of injection.” left out, “Concurrently, blood and urine aliquots (1 μL) were sampled for stability tests, which were carried out by radio-TLC scans (Cyclone, Perkin Elmer) by using silica gel 60 RP-18 F254S plates and 0.1 M sodium citrate as eluent.” left out

Human serum stability = type: in vitro ADME; conditions: prepared at 25 MBq/nmol, 37 °C, over 24 h
Experimental: Human serum stability assays were performed as follow: the preformed [^64Cu]Cu^2+ complexes (prepared at 25 MBq/nmol) were diluted 1:5 v/v in human serum. The samples were incubated at 37 °C to simulate the biological environment. At the defined time point, 50 μL of the plasma-containing mixture were added to 200 μL of ice-cold methanol (0.16 MBq/μL final concentration) and centrifuged for 3 min at 8000 rpm. Afterwards, 2 μL of supernatant were spotted on TLC plates developed using the previous protocols. Dissociation of [^64Cu]Cu^2+ from the complexes was also monitored at varying time points using the same procedure with the exception that no proteins were precipitated. In this case, 2 μL of human plasma containing the labelled complex was directly spotted on the TLC plate. […] Both procedures were validated by incubating free [^64Cu]Cu^2+ with human plasma.

[5] = Stability assay with DOTA (1000:1 DOTA-to-ligand); type: physicochemical; conditions: RT
Experimental: as §2, §3

[6] = maximum reached over 1-24 h post-injection

Row | % of intact complex, Cysteine, 0 h [3] | % of intact complex, Cysteine, 3 h [3] | % of intact complex, Cysteine, 24 h [3] | % of intact complex, DOTA, 0 h [5] | % of intact complex, DOTA, 7 h [5] | % of intact complex, DOTA, 24 h [5] | Structure (SMILES) | further results
1 |  |  |  |  |  |  | CSCCN1CCN(CC(=O)O)CCN(CCSC)CCN(CC(=O)O)CC1 [DO2A2S, 1,7-bis[2-(methylsulfanyl)ethyl]-4,10,diacetic acid-1,4,7,10-tetraazacyclododecane] | intact complex in PBS with ascorbic acid ([1]; ascorbic acid 10% v/v): ~ 90%; intact complex in PBS [1]: ~ 25%
2 |  |  |  |  |  |  | CSCCN1CCN(CCSC)CCN(CCSC)CCN(CCSC)CC1 [DO4S, 1,4,7,10-Tetrakis[2-(methylsulfanyl)ethyl]-1,4,7,10-tetraazacyclododecane] | intact complex in PBS [1]: ~ 70%
3 | 100% | 85% | 74% | 91% | 90% | 87% | CSCCN1CCN(CC(=O)[O-])CCN(CCSC)CCN(CC(=O)[O-])CC1.[64Cu+2] [[^64Cu][Cu(DO2A2S)]] | blood levels ([2]; 1 h post-injection, tail vein): < 2 % ID/g; kidneys uptake ([2]; 1 h post-injection, tail vein): 14.1 % ID/g; liver uptake ([2]; 1 h post-injection, tail vein): 14.0 % ID/g; lungs uptake ([2]; 1 h post-injection, tail vein): 8 % ID/g; pancreas uptake ([2]; 1 h post-injection, tail vein): 3 % ID/g; retention in bone ([2]; 1 h post-injection, tail vein): < 2 % ID/g; retention in muscle ([2]; 1 h post-injection, tail vein): < 1 % ID/g; spleen uptake ([2]; 1 h post-injection, tail vein): 4 % ID/g; dose found at 1 h remaining in kidneys at 24 h ([2]; 24 h versus 1 h post-injection): 73%; dose found at 1 h remaining in liver at 24 h ([2]; 24 h versus 1 h post-injection): 82%; dose found at 1 h remaining in lungs at 24 h ([2]; 24 h versus 1 h post-injection): 75%; pancreas uptake, progressive accumulation over time [2, 6]: ≤ 5.5 % ID/g; spleen uptake, progressive accumulation over time [2, 6]: up to 5.3 % ID/g; free-[^64Cu]Cu^2+/+ in urine samples ([4]; 4 h post-injection): ~50%; free copper-64 in blood samples ([4]; within 24 h from the injection): less than 5%; intact complex in human serum (Human serum stability): > 99%
4 | 100% | 100% | 100% | 100% | 100% | 100% | CSCCN1CCNCCN(CCSC)CCN(CCSC)CC1.[64Cu+2] [[^64Cu][Cu(DO3S)]^2+] | 
5 | 100% | 83% | 72% | 100% | 80% | 38% | CNC(=O)CN1CCN(CCSC)CCN(CCSC)CCN(CCSC)CC1.[64Cu+2] [[^64Cu][Cu(DO3SAm)]^2+] | 
6 | 100% | 100% | 83% | 100% | 92% | 88% | CSCCN1CCN(CCSC)CCN(CCSC)CCN(CCSC)CC1.[64Cu+2] [[^64Cu][Cu(DO4S)]^2+] | complex stability in PBS with radioprotectants ([1]; ethanol 10% v/v or ascorbic acid 10% v/v): preserve the complex over 24 h
7 |  |  |  |  |  |  | O=C([O-])CN1CCN(CC(=O)[O-])CCN(CC(=O)[O-])CCN(CC(=O)[O-])CC1.[64Cu+2] [[^64Cu][Cu(DOTA)]^2−, reference compound] | intact complex in human serum (Human serum stability): around 80%
